Assay results reported in patent US9358276B2, “Methods of diagnosing and treating small intestinal bacterial overgrowth (SIBO) and SIBO-related conditions” (Cedars-Sinai Medical Center, priority 1999, dated 2016).

What was measured:
[1] = test system: isolated segment of guinea pig colon; details: Wade et al. 1996; slower as dose increased; cited from earlier work
[2] = test system: intestinal transit; test: Intestinal transit in multi-fistulated dogs, cumulative % recovery of 99mTc-DTPA; assay type: in vivo, dog; details: n=2
Excerpt: The experiments described below are based on a previously described chronic multi-fistulated dog model, employing surgically fistulated male or female mongrel dogs weighing about 25 kg each. (Lin, H. C. et al., Inhibition of gastric emptying by glucose depends on length of intestine exposed to nutrient, Am. J. Physiol. 256:G404-G411 [1989]). The small intestines of the dogs were each about 300 cm long from the pylorus to the ileal-cecal valve. The duodenal fistula was situated 15 cm from the pylorus; the mid-gut fistula was situated 160 cm from the pylorus. Occluding Foley catheters (balloon catheters that are inflated to produce a water-tight seal with the lumenal surface) were placed into the distal limb of a duodenal fistula and a mid-gut fistula, fat or other test agents were administered lumenally to the thus compartmentalized Aproximal≅ section of the gut, i.e., between the fistulas, or to the compartmentalized Adistal≅ section of the gut, i.e., beyond the mid-gut fistula. Perfusate was pumped into a test section through the catheter at a rate of 2 mL/minute. Test agents were administered along with buffer perfusate, but some test agents were administered intravenously, where specifically noted.
Intestinal transit measurements were made by tracking the movement of a liquid marker across the approximately 150 cm intestinal test segment by delivering about 20 μCi ^99mTc chelated to diethyltriamine pentaacetic acid (DTPA)(Cunningham, K. M. et al., Use of technicium-99m (V)thiocyanate to measure gastric emptying of fat, J. Nucl. Med. 32:878-881 [1991]) as a bolus into the test segment after 60 minutes of a 90-minute perfusion. The output from the mid-gut fistula was collected every 5 min thereafter for 30 minutes, which period is illustrated in FIGS. 9-23. Using a matched dose of ^99mTc to represent the original radioactivity (Johansson, C., Studies of gastrointestinal interactions, Scand. J. Gastroenterol. 9(Suppl 28):1-60 [1974]; Zierler, K., A simplified explanation of the theory of indicator dilution for measurement of fluid flow and volume and other distributive phenomena, Bull. John Hopkins 103:199-217 [1958]), the radioactivity delivered into the animal as well as the radioactivity of the recovered fistula output were all measured using a gamma well counter. After correcting all counts to time zero, intestinal transit was calculated as the cumulative percent recovery of the delivered ^99mTc-DTPA. This method has been well validated over the years and appreciated for its advantage of minimal inadvertent marker loss. […] There was a very high level of marker recovery, with 90% of the marker recovered by 30 minutes and 98% of the marker recovered by 45 minutes.

[3] = test system: release of 5-HT from the proximal gut; test: 5-HT released by the proximal gut (ELISA of mid-gut fistula output); assay type: in vivo, dog; details: intravenous PYY (0.8 mg/kg/h); Control 140.1 μg
Method: To test the hypothesis that fat in the distal gut causes the release of 5-HT in the proximal gut, the amount of 5-HT collected from the output of the mid-gut fistula (proximal gut 5-HT) over a 90-minute period of buffer perfusion through both the duodenal and mid-gut fistulas (2 mL/min); buffer (control) or oleate (60 mM) was administered to the distal gut (n=1). The amount of 5-HT was determined using an ELISA kit specific for 5-HT (Sigma; Graham-Smith, D. G., The carcinoid syndrome, In: Topics in Gastroenterology, Truclove, S. C. and Lee, E. (eds.), Blackwells, London, p. 275 [1977]; Singh, S. M. et al., Concentrations of serotonin in plasma-a test for appendicitis?, Clin. Chem. 34:2572-2574 [1988]). The amount of 5-HT released by the proximal gut increased in response to fat in the distal gut from 100 μg in the control (buffer minus oleate) to 338 μg (buffer plus oleate to distal gut), showing that 5-HT is released in the proximal gut in response to fat in the distal gut. Thus, the release of 5-HT by the proximal gut can serve as a relayed signal for fat in the distal gut. The relayed release of 5-HT in the proximal gut in response to fat in the distal gut is consistent with Example 14(2), showing that slowing of intestinal transit by fat depends on an efferent 5-HT-mediated pathway to the proximal gut.
To test the hypothesis that 5-HT in the distal gut causes the release of 5-HT in the proximal gut, the amount of 5-HT collected from the output at the mid-gut fistula (Proximal gut 5-HT) over a 90-minute period of buffer perfusion through both the duodenal and mid-gut fistulas (2 mL/min each) was compared in the presence or absence of 5-HT (0.05 mg/kg/h) administered to the distal gut (n=1). 5-HT concentration was determined using an ELISA kit specific for 5-HT (Sigma). The amount of 5-HT released by the proximal gut increased from 156 μg in the control (minus distal 5-HT) to 450 μg (plus 5-HT to distal gut), implying that 5-HT is released by the proximal gut in response to 5-HT in the distal gut. Thus, the release of 5-HT by the proximal gut can serve as a relayed signal for distal gut 5-HT. This relayed release of 5-HT in the proximal gut explains the results of Example 14(6) showing that the slowing of intestinal transit by distal gut 5-HT was abolished by ondansetron in the proximal gut (efferent limb of response) as well as in the distal gut (afferent limb of response).
To test the hypothesis that the proximal gut releases 5-HT in response to lipid in the distal gut, we compared the amount of 5-HT in the output of the midgut fistula (i.e., proximal gut 5-HT) with buffered saline (control) or oleate in the distal gut. The amount of 5-HT collected over 90 min was measured using a 5-HT-specific ELISA test kit, as described herein above. Four dogs were tested.
The amount of 5-HT released from the proximal gut in response to intravenous PYY or buffered saline (Control) during buffer perfusion (2 mL/min over 90 minutes) through both the duodenal and mid-gut fistulas was measured to test the hypothesis that intravenous PYY (0.8 mg/kg/h) causes the release of 5-HT in the proximal gut. 5-HT was measured as in Example 14(9) above. The amount of 5-HT released by the proximal gut increased from 140.1 μg (Control) to 463.1 μg in response to intravenous PYY.

[4] = test system: isolated canine ileum; details: infused into isolated canine ileum; Fox-Threlkeld et al. 1993; cited from earlier work

Compound | passage of a pellet through an isolated segment of guinea pig colon [1] | marker recovery ([2]; 30 μg PYY (0.8 mg/kg/h) intravenously, Buffer Control 78.1±2.2%) | marker recovery ([2]; IV PYY 0.8 μg/kg/h + lumenal normal saline, control 75.1±3.6%) | amount of 5-HT released by the proximal gut [3] | phasic circular muscle activity [4]
CNCCC(Oc1ccc(C(F)(F)F)cc1)c1ccccc1 (centres unmarked) [fluoxetine] | initially accelerated |  |  |  | 
PYY: Peptide YY, a physiological fat signal molecule that slows transit |  | 11.8±5.4% | 17.1±11.0% | 463.1 µg | dose-dependently increased
